Patent US7629354B2, “Use of phanquinone for the treatment of Alzheimer's disease” (Prana Biotechnology Limited, priority 1997, dated 2009)
Blank lines part the entries; values can stand above or below the molecule they belong to.

Experiments:
[1] = in vivo; cited from earlier work
[2] = 1H NMR study of the interaction of vitamin B12 with clioquinol glucuronide; format: binding; conditions: 2.6 mM vitamin B12 and 10 mM clioquinol glucuronide, buffered water pH=6.5, 20° C.
Description: Three different solutions were prepared and their 1H NMR spectra were recorded in a DRX 400 MHz spectrophotometer at 20° C. Solution a) contained free vitamin B12 (hydroxycobalamin) in a concentration of 2.6 mM.
In FIG. 5 the spectra of the three solutions are presented for the aromatic region (5.5-9.8 ppm). The differences are quite small but obvious in the expansion shown of FIG. 6 and FIG. 7, respectively.

[3] = Solubility in water / aqueous solutions; format: physicochemical
Aβ(1-40) [4] = biological target: T1, Aβ(1-40) (Homo sapiens, UniProt P05067); experiment: Thioflavin T fluorometric assay of Zn2+-induced Aβ(1-40) aggregation; format: biochemical; conditions: test compound 10 μg/ml; Aβ(1-40) 100 μM; 24 hours, room temperature
T1 construct: A 5 mg/ml stock solution of Aβ(1-40) (delivered from Bachem (CH)) was freshly prepared; purchased Bachem (CH)
T1 sequence (P05067 672-711): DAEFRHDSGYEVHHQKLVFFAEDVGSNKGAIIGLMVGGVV
Description: (§1) A 5 mg/ml stock solution of Aβ(1-40) (delivered from Bachem (CH)) was freshly prepared before each experiment by dissolving the lyophilised peptide in 0.01 M HCl, followed by subsequent dilution 1:1 with 0.01 M NaOH to yield a neutral pH. Aliquot of Aβ(1-40) were diluted in PBS (pH 7.4) to 100 μM and incubated at a total volume of 30 μl for 24 hours at room temperature. For co-incubation experiments, the indicated concentrations of metal ions and/or aliquot of test compounds were added. The test compounds were added to a final […] concentration of 10 μg/ml.
(§2) The amyloid formation was quantified by a thioflavin T fluorometric assay. Thioflavin binds specifically to amyloid and this introduces a shift in its emission spectrum and a fluorescent signal proportional to the amount of amyloid is formed. After incubation, Aβ(1-40) peptides were added to PBS (pH 6.0) and 3 μM thioflavin T in a final volume of 1 ml. Fluorescence was monitored at excitation 454 nm and emission 482 nm using a Fluoroscan II fluorometer (Molecular devices, UK). A time scan of fluorescence was performed and three values after the decay reached a plateau (around 5 minutes) were averaged after subtracting the background fluorescence of 3 μM thioflavin T. For co-incubation experiments, fluorescence of test compound alone was determined. Samples were run in triplicate. […]

Aβ(1-40) [5] = biological target: T1, Aβ(1-40); experiment: Thioflavin T fluorometric assay of Cu2+-induced Aβ(1-40) aggregation; format: biochemical; conditions: test compound 10 μg/ml; Aβ(1-40) 100 μM; 24 hours, room temperature
Description: as §1, §2

PC12 cells = experiment: MTT reduction (cell redox activity) in PC12 cells exposed to Aβ(25-35); format: cell-based, Rat
Description: Aβ(25-35) was delivered by Bachem (CH) or Sigma (USA) and dissolved in phosphate buffered saline (PBS) at pH 7.4, 2 hours prior to application.
Rat PC12 pheochromocytoma cells were grown in Dulbecco's modified Eagle's medium (DMEM) containing 1% penicillin-streptomycin, 5% fetal calf serum and 10% horse serum in humidified incubator with 5% CO2.
PC12 cells were plated on 96-wells microtiter plates in 100 μl of the appropriate medium. After 24 hours the indicated concentrations of Aβ(25-35) peptide was added alone or together with phanquinone in the designated concentrations. Incubation continued for 24 hours. Following incubation, MTT reduction was measured using a commercially available assay according to the manufacturer's (Boehringer Mannheim) instructions. Assay values obtained by vehicle alone were defined as 100%.
MTT is a substrate for intracellular and plasma membrane oxidoreductases and has been widely used to measure reductions of cell redox activity.
To test the effect of phanquinone on Aβ(25-35) induced toxicity in PC12 cells, PC12 cells were exposed to Aβ(25-35) peptide concentrations ranging from 0 to 10 μM. In the absence of phanquinone (i.e. only vehicle added) Aβ(25-35) produced a dose-dependent inhibition of MTT reduction (FIG. 1, filled-in circles).
In this study the same materials and methods as in example 1 were used, except that the PC12 cells were exposed to a fixed Aβ concentration of 1 μM, whereas the concentration of phanquinone was varied between 0 and 10 μg/ml. […] This inhibition was maintained in the presence of up to 0.1 μg phanquinone per ml.

Molecule: CCN(CC)C(=S)SSC(=S)N(CC)CC [Disulfiram]
adverse side effects [1]: severe adverse reactions

solubility in water [3]: soluble in water
Molecule: COC(=O)C1OC(Oc2c(I)cc(Cl)c3cccnc23)C(OC(C)=O)C(OC(C)=O)C1OC(C)=O (centres unmarked) [clioquinol glucuronide, methyl(5-chloro-7-iodo-quinolyl-2′,3′,4′-tri-O-acetyl-glucopyranosid)uronate]
interaction with vitamin B12 (shift of 1H NMR resonances) [2]: interaction between clioquinol glucuronide and vitamin B12, possibly of a hydrophobic nature

reduction of Zn2+-induced aggregation of Aβ(1-40) (Aβ(1-40) [4]): more than 60%
reduction of Cu2+-induced aggregation of Aβ(1-40) (Aβ(1-40) [5]): approximately 30%
solubility in water [3]: cannot be dissolved in aqueous solutions
Molecule: Oc1c(I)cc(Cl)c2cccnc12 [clioquinol, 5-chloro-7-iodo-8-hydroxyquinoline]
adverse side effects [1]: causes subacute myelo-optico-neuropathy (SMON)

Molecule: O=C1C(=O)c2ncccc2-c2cccnc21 [phanquinone, 4,7-phenanthroline-5,6-dione]
redox activity of Aβ(25-35)-treated cells (PC12 cells; 1 μM Aβ(25-35), 1 μg/ml phanquinone or more): normal redox activity is restored
toxic effect of Aβ (PC12 cells; 10 μg phanquinone per ml, Aβ as high as 1 μM): completely counteracted
toxic effect of Aβ(25-35) (PC12 cells; 10 μg phanquinone per ml, Aβ(25-35) 0 to 10 μM): virtually abolished
toxic effect of Aβ(25-35) (PC12 cells; Aβ 1 μM, phanquinone 1 μg/ml and above): completely abolished
toxic effect of Aβ(25-35) (PC12 cells; Aβ 1 μM, phanquinone above 0.1 μg/ml): drastic reduced toxic effect
inhibition of MTT reduction by Aβ(25-35) (PC12 cells; Aβ 1 μM, up to 0.1 μg phanquinone per ml): maintained
reduction of Cu2+-induced aggregation of Aβ(1-40) (Aβ(1-40) [5]): 50-60%
adverse side effects [1]: no adverse side effects have been detected

Molecule: Aβ(25-35): peptide sequence between amino acid residues 25 and 35 of Aβ, delivered by Bachem or Sigma (GSNKGAIIGLM; Amyloid-beta protein 42; UniProt P05067 696-706, looked up, fragment)
redox activity of cells, of the normal level (PC12 cells; 1 μM Aβ(25-35)): 60%
inhibition of MTT reduction (PC12 cells; Aβ(25-35) 1 μM, absence of phanquinone): approximately 40%
inhibition of MTT reduction (PC12 cells; Aβ(25-35) 10 μM, absence of phanquinone): approximately 50%
inhibition of MTT reduction (PC12 cells; Aβ(25-35) as low as 0.01 μM): significant reduction
MTT reduction reduced to a maximum level (PC12 cells; Aβ(25-35) on or above 0.1 μM, absence of phanquinone): about 50%
